Laboratory results as given in the NIST ThermoML archive (doi:10.1021/je0502905).
± gives the expanded uncertainty stated by the source.

Key:
[1] = Liquid; for mass density: 293.15 K, 101.33 kPa
[2] = refractive index (Na D-line) (dimensionless); details: 293.15 K; 101.33 kPa; Liquid; Standard Abbe refractometry

**Q.** For `CCCCC(C)=O` [2-hexanone], which mass density [1] is on record?
**A.** 811.2 ± 0.8 kg/m3

**Q.** What about the “vapor or sublimation pressure” value ([1]; 359.51 K) of the same compound?
**A.** 26.66 ± 0.27 kPa

**Q.** What about the “vapor or sublimation pressure” value ([1]; 379.52 K) of the same compound?
**A.** 53.33 ± 0.32 kPa

**Q.** What about the “vapor or sublimation pressure” value ([1]; 392.57 K) of the same compound?
**A.** 79.99 ± 0.45 kPa

**Q.** What about the “vapor or sublimation pressure” value ([1]; 400.69 K) of the same compound?
**A.** 101.32 ± 0.53 kPa

**Q.** And the refractive index [2]?
**A.** 1.4008 ± 0.0007

**Q.** For `CCCCCCCCC` [nonane], which mass density [1] is on record?
**A.** 717.6 ± 0.7 kg/m3

**Q.** And the “vapor or sublimation pressure” value ([1]; 379.88 K)?
**A.** 26.66 ± 0.25 kPa

**Q.** And the “vapor or sublimation pressure” value ([1]; 401.28 K)?
**A.** 53.33 ± 0.3 kPa

**Q.** And the “vapor or sublimation pressure” value ([1]; 415.26 K)?
**A.** 79.99 ± 0.42 kPa

**Q.** And the “vapor or sublimation pressure” value ([1]; 423.97 K)?
**A.** 101.32 ± 0.49 kPa

**Q.** What about the refractive index [2] of the same compound?
**A.** 1.4055 ± 0.0007

**Q.** For `CCCCCO` [pentan-1-ol], which mass density [1] is on record?
**A.** 814.5 ± 0.8 kg/m3

**Q.** What about the “vapor or sublimation pressure” value ([1]; 375.63 K) of the same compound?
**A.** 26.66 ± 0.31 kPa

**Q.** What about the “vapor or sublimation pressure” value ([1]; 392.7 K) of the same compound?
**A.** 53.33 ± 0.37 kPa

**Q.** And the “vapor or sublimation pressure” value ([1]; 403.8 K)?
**A.** 79.99 ± 0.53 kPa

**Q.** What about the “vapor or sublimation pressure” value ([1]; 410.79 K) of the same compound?
**A.** 101.32 ± 0.61 kPa

**Q.** What about the refractive index [2] of the same compound?
**A.** 1.4098 ± 0.0007
